Like-named read-outs stand apart in the source and are kept apart here.
Columns and labels:
[1] = system: lymphocytes from donor blood and from the blood of an asthmatic patient; test: Intracellular free [Ca2+]i by flow cytometry with fluo-3/AM; assay type: cell-based, human; conditions: in either stimulated or untreated cells
Description: Intracellular free [Ca^2+]i content was monitored by flow cytometry using the Ca^2+-sensitive dye fluo-3/AM (Molecular Probe Inc., OR)(Minta, Kao and Tsien, 1989, J. Biol. Chem. 264:8171-8178). Cells obtained from donor blood and those from the blood of an asthmatic patient were further washed twice in DMEM and resuspended to a concentration of 10^7 cells/ml. Fluo-3/AM (1 mM) was prepared in DMSO augmented with the nonionic surfactant Pluronic F-127 (Wyandotte Corp., Mich.). Aliquots of fluo-3/AM stock solution were added to cell suspensions in DMEM/HEPES at a final concentration of 3 μM (loading buffer). Loading was allowed to proceed for 30 min. at 37° C. and continued for 1 hour at 23° C. with gentle agitation. Cells were then adjusted to desired concentrations using fresh DMEM/HEPES, supplemented with 2% horse serum. Autofluorescence was eliminated by setting the threshold sensitivity above the levels obtained in absence of dye. Fluorescence intensity data was collected from 5000 single cells and values were expressed as arbitrary fluorescence units. Prodrug-1 (1 mM) was prepared in DMSO and added when appropriate at a final concentration of 3 μM to the cells for 5 min. prior to calcium treatment.
Lymphocytes from donor blood and from the blood of an asthmatic patient were exposed to prodrug-1. […]

[2] = system: post-pilocarpine-seizure-cardiopathy (PSCP); test: Post-pilocarpine-seizure cardiopathy (PSCP) model, in vivo ECG; design: species or system Sprague-Dawley rats
Description: (§1) Adult (2-3 months) male Sprague-Dawley rats were used for all experiments. They were fed with standard briquette chow with water ad libitum and were maintained in standard plastic cages (4-5 individuals in each cage) under natural illumination. A pilocarpine-scopolamine epileptic status model (pilocarpine) was performed as described earlier. In a group of 23 rats, pilocarpine was administered i.p. in different doses which ranged from 100 to 400 mg/kg body weight (B/W) for different periods of time; a second group of 17 rats was treated with DP16 prior to pilocarpine administration, wherein the DP16 was injected for 30 min before pilocarpine in the next dose range and its effect was investigated in the ensuing periods.
(§2) In vivo ECG (Birtcher-Cardio-Tracer, model 375, USA) in three standard leads were recorded under ketamine anesthesia (3.3 mg/ky Imalgene 100, Rhone Merieux, France and 7 mg/kg Rompun, Bayer Leverkusen, Germany, i.m.). […] In the case of constant PP the volume of effluent flow was measured on electron balance (Precisa 1000C-3000D, Switzerland). […] Direct ECG were recorded from ventricular apex (lead 1), auriculum (lead 2) and in-between (lead 3). The coronary vessel's perfusion resistance (CVPR) was calculated in arbitrary units as follows: PP/flow/heart weight. […]

rat hearts = test: Ex-vivo rat heart Low-flow-Reperfusion Langendorff model
Text: Low-flow Reperfusion Langendorff's heart (Meely and Rovetto, 1975, METHODS IN ENZYMOLOGY, v39:43-60) is an established ex vivo model of a human ischemic heart. A severe decrease in perfusion pressure (PP) below 20 mm Hg (low-flow period) causes sinus bradycardia culminating by stable AV block (“AVB”; 10 out of 11 hearts) frequently followed by ventricular arythmia. Restoration of perfusion pressure causes paroxysmal tachyarrhythmia followed by irreversable ventricular fibrillation (VF).
The experiments were preformed ex vivo on 39 rat hearts. Heart electrical activity and perfusion pressure were stable following 15 min., each. Perfusion buffer was supplemented with DP16 (1.0 μg/l) following the stable AV block during low flow perfusion and during the Reperfusion period.
The experimental protocol documented by FIG. 16 included periods of Normal Coronary Flow (FIG. 6, NF, panel 1) followed by Low-Flow (LF) and then by Normal flow-reperfusion (NF-Rp) (panels 2 and 3, respectively).
The experiments were performed by addition of DP16 (0.5-500 μg/l) to the perfusion buffer after AV block establishment.

[3] = system: isoproterenol induced myocardial damage; test: Isoproterenol induced myocardial damage; assay type: in vivo, Sprague-Dawley rats
Description: Administration of the potent β-adrenoreceptor agonist isoproterenol (ISO) is commonly accepted model of experimental myocardial pathology. The cardioprotective effect of DP16 was tested on 82 Sprague-Dawley female rats weighing 250-350 g. Myocardial damage was induced in rats by two consecutive injections of ISO ([…], s.c.). When appropriate, the injections of ISO were followed in 30 and 180 minutes by DP16 (0.01 μg/kg, i.p.). The effect of DP16 was estimated by ECG analysis and determination of serum glutamate-oxaloacetate transaminase (SGOT) and lactatdehydrogenase (LDH) activity. Mortality of control rats after ISO intervention was 17.1±5.9% (7 out of 41). […] Pathological signs on ECG were aggravated during the experimental period. […] Administration of DP16 decreased mortality in 2 cases (2 out of 30). […] Pathological displacement of the ST-segment was found only on 28 and 40% of ECG (in 24 and in 48 hours following ISO respectively).

[4] = system: isolated hearts from pilocarpine-treated rats; test: Perfusion-Hypoxia-Reperfusion isolated Langendorff heart from pilocarpine-treated rats; design: species or system Sprague-Dawley rats; conditions: treatment prior to pilocarpine; initial and final periods of perfusion
Description: as §1, §2

[5] = system: metrazol induced seizures (myoclonic jerks); test: Metrazol minimal seizures test; assay type: in vivo, BALB/c mice; conditions: 30 min before Metrazol s.c.
Description: Testing of DP16 as a possible antiepileptic drug was performed on 3-4 week old male BALB/c mice (18-27 g). Animals were maintained on an adequate diet and allowed free access to food and water except briefly during the experimental period. Animals were separately housed for one hour in transparent plastic cages before treatment and during the experimental period. Drugs were dissolved in normal saline with injection volume adjusted to 0.01 ml/g of body weight. DP16 was administered i.p., in doses ranging from 0.1 to 300 μg/kg: (0.1 μg/kg: n=10, 5 μg/kg: n=10, 25 μg/kg: n=20, 75 μg/kg: n=20, 150 μg/kg: n=20, and 300 μg/kg: n=10 animals respectively). Control animals received injections i.p. of normal saline. DP16 or saline administration followed in 30 minutes by Metrazol ([…], s.c.). […] Absence or relative delay of myoclonic jerks (MJ) in the experimental group was considered as indication of possible antiepileptic activity. Data were subjected to chi-square analysis with the computer statistic package “StatViewII”,

[6] = system: rat model of permanent cerebral ischemia; test: Bilateral permanent cerebral ischemia model (common carotid artery ligation); assay type: in vivo; conditions: rats, i.p. 0.001-0.1 mg/kg following artery ligation; p<0.01; FIG. 2
Description: Bilateral ligation of the common carotid arteries is the simplest and most direct approach for inducing permanent partial ischemia. In the rats there is almost 64% mortality 24 h later. The causes of mortality are largely brain swelling (edema) and focal lesions (infarcts). Permanent partial global is achieved by isolation of the common carotid artery through an incision on the ventral surface of the neck. The salivary glands are moved laterally and the carotid sheath exposed. Both the vagus and sympathetic nerves are separated from the common carotid artery, which is then permanently ligated. Sprague-Dawley rats (250-300 g) were anesthetized with halothane or by intramuscular injection of 0.1 ml Ketamine (0.1 g/ml, Parke Davis UK) and 0.1 ml Rompun (2%, Bayer, FRG) per 300 g body weight. DP16 was administered intraperitoneally (i.p., 0.001-0.1 mg/kg) when appropriate following the artery ligation. Every experimental and control group included 14 male rats. Statistical analysis was performed according to t-test criteria.

[7] = system: pilocarpine induced epileptic seizures; test: Pilocarpine based model of experimental epilepsy; assay type: in vivo, rats
Description: Acetylcholine, acetylcholinesterase inhibitors and acetylcholine analogues are effective epileptogenic agents when applied intracerebrally or systematically (see ref. in Leite et al., Neurosci. & Biobeh. Rev., 1990, 14:511-17). […] Systemic injections of the pilocarpine, a potent muscarinic cholinergic agonist, are capable of producing a sequence of behavioral alterations including stirring spells, facial automatisms and motor limbic seizures, that develop over 1-2 hours and build progressively into limbic status and following by general status epilepticus.
Immediately following injection of pilocarpine, akinesia, ataxic lurching, facial automatism and […] dominated the animals' behavior. Further development of epileptic events is dose-dependent. Administration of pilocarpine in doses of 300-350 mg/kg causes appearance of limbic seizures with rearing, forelimb clonus, salivation, intense masticatory jaw movements and falling. Motor limbic seizures commenced after 20-30 min., recurred every 2-8 min and lead to status epilepticus. Increase of the dose of pilocarpine up-to 400mg/kg abolished limbic seizures and after 15-25 min of initial behavioral alterations causes fatal general tonic-clonic convulsions. We consider this dose as the LD100.

[8] = system: metrazol induced convulsions and death; test: Metrazol anticonvulsant test (prevention of convulsions and/or death); assay type: in vivo, mice; conditions: for ED100: mice, one hour before s.c. metrazol (80 mg/kg), 30 minutes observation, TVA16 i.p.
Description: A test sample of TVA16 was administered i.p. (0.01 to 100 mg/kg) to a group of three mice, one hour before an s.c. dose of metrazol (80 mg/kg). An effective dose was the amount which prevented convulsions (scored 2 points per animal) and/or death (scored 1 point per animal) in the subsequent 30 minutes.

O=C(O)CN(CC(=O)O)c1ccccc1OCCOc1ccccc1N(CC(=O)O)CC(=O)O [BAPTA, 1,2-bis-(2-aminophenoxy)ethane-N,N,N′,N′-tetraacetic acid]
reducing the intracellular calcium levels [1]: ineffective

CCCCCCCCCCCCCCCC(=O)OCC(COP(=O)([O-])OCC[N+](C)(C)C)OC(=O)CN(CC(=O)O)c1ccccc1OCCOc1ccccc1N(CC(=O)O)CC(=O)O (stereo not drawn) [DP16]
ECG alterations in the phase of stabilization ([2]; 3-14 days after pilocarpine, p<0.01 vs not protected): prevents the appearance of ECG alterations | normalized electrical activity (ECG) at the acute stage of PSCP ([2]; DP16 prior to pilocarpine, 24h after pilocarpine): 5 out of 7 | complete restoration of AV synchronism (rat hearts; 1.0 μg/l in perfusion buffer after AV block establishment): 11 out of 16 | decreased level of AVB and prevented ventricular fibrillation (rat hearts; 1.0 μg/l, additional cases of the 16 experiments): 5 cases | efficiency in resolving atrio-ventricular blockade and preventing ventricular fibrillation compared to BAPTA and BAPTA-AM (rat hearts; FIG. 7): much better efficiency | full restoration of the sinus rhythm during reperfusion (rat hearts; reperfusion period): 11 out of 16 | percentage of animals exhibiting abnormal level of SGOT and LDH activity ([3]; 0.01 μg/kg i.p.): substantially decreased | mortality ([3]; 0.01 μg/kg i.p. 30 and 180 minutes after ISO, control 7 out of 41): 2 out of 30 | pathological displacement of the ST-segment, share of ECG ([3]; 24 hours following ISO): 28% | pathological displacement of the ST-segment, share of ECG ([3]; 48 hours following ISO): 40% | coronary vessel's perfusion resistance (CVPR) regulation [4]: prevents damage of CVPR regulation | response to metrazol (myoclonic jerks) ([5]; 0.1 μg/kg i.p.): same response to metrazol as control | response to metrazol (myoclonic jerks) ([5]; 5 to 300 μg/kg i.p., p<0.001): significant protective effect | decrease of post-ischemic mortality compared with control [6]: 250% | dose range with dose dependent therapeutic effects ([7]; FIG. 4, reduction in fatal seizures): 10^−8 to 10^−5 mg/kg | effect on death and epileptiform manifestations ([7]; administered prior to pilocarpine): prevented death in the animals and decreased epileptiform manifestations | estimated therapeutic index (ET) ([7]; pilocarpine 400 mg/kg, rats, 0.5 mg/kg/5×10^−7 mg/kg): 1×10^6

C[C@]12N[C@H](Cc3ccccc31)c1ccccc12 [MK-801]
ED100 ([8]; Mus musculus, read-out: ED100): 0.5 mg/kg

CCCCCCCCCCCCCCCC(=O)OCC(COP(=O)([O-])OCC[N+](C)(C)C)OC(=O)C(CCC)CCC (stereo not drawn) [TVA16]
dose response curve compared to valproic acid itself ([8]; FIG. 8, doses as mg of valproic acid per kg body weight): improvement | potency relative to sodium valproate ([8]; from Table 1): more than 500 × | ED100 [8]: 20 mg/kg

CN1C(=O)CN=C(c2ccccc2)c2cc(Cl)ccc21 [diazepam]
ED100 ([8]; Mus musculus, read-out: ED100): 2.5 mg/kg

CCC1(c2ccccc2)CCC(=O)NC1=O (stereo not drawn) [glutethimide]
ED100 ([8]; Mus musculus, read-out: ED100): 150 mg/kg

CCCC(C)(COC(N)=O)COC(N)=O [meprobamate]
ED100 ([8]; Mus musculus, read-out: ED100): 200 mg/kg

CCC1(c2ccccc2)C(=O)NC(=O)NC1=O [phenobarbital]
ED100 ([8]; Mus musculus, read-out: ED100): 50 mg/kg

CC[C@@H]1C(=O)OC[C@@H]1Cc1cncn1C [pilocarpine, reference compound]
LD100 (fatal general tonic-clonic convulsions) ([7]; rats): 400 mg/kg
